Results from EPA's CvTdb concentration-time database (doi:10.1093/toxsci/kfy020).

Columns and labels:
Test in all cases: concentration in plasma after dosing
rat [1] = conditions: dosed: Nilvadipine, 10.0000000000 mg/kg, oral, male, Sprague-Dawley
rat [2] = conditions: Sprague-Dawley
rat [3] = conditions: dosed: Novaluron, 0.4000000000 mg/kg, iv, male, Sprague-Dawley
rat [4] = conditions: dosed: Novaluron, 0.4000000000 mg/kg, iv, male, Sprague-Dawley; remark: listed apart in the source
rat [5] = conditions: dosed: Novaluron, 2.0000000000 mg/kg, oral, male, Sprague-Dawley
rat [6] = conditions: dosed: Novaluron, 2.0000000000 mg/kg, oral, male, Sprague-Dawley; remark: listed apart in the source
rat [7] = conditions: dosed: Novaluron, 2.0000000000 mg/kg, oral, male, Sprague-Dawley; remark: listed apart in the source
rat [8] = conditions: dosed: Propyzamide, 3.0000000000 mg/kg, oral, male, Sprague-Dawley
rat [9] = conditions: dosed: Propyzamide, 3.0000000000 mg/kg, oral, male, Sprague-Dawley; remark: listed apart in the source
rat [10] = conditions: dosed: Propyzamide, 3.2120000000 mg/kg, oral, male, Sprague-Dawley
rat [11] = conditions: dosed: Propyzamide, 0.6 mg/kg, iv, male, Sprague-Dawley
rat [12] = conditions: dosed: Propyzamide, 3.0000000000 mg/kg, oral, male, Sprague-Dawley; remark: listed apart in the source
rat [13] = conditions: dosed: Propyzamide, 3.2120000000 mg/kg, oral, male, Sprague-Dawley; remark: listed apart in the source
rat [14] = conditions: dosed: Propyzamide, 0.6 mg/kg, iv, male, Sprague-Dawley; remark: listed apart in the source
rat [15] = conditions: dosed: Pyrithiobac sodium, 1.037 mg/kg, oral, male, Sprague-Dawley
rat [16] = conditions: dosed: Pyrithiobac sodium, 1.037 mg/kg, oral, male, Sprague-Dawley; remark: listed apart in the source

COC(=O)C1=C(C#N)NC(C)=C(C(=O)OC(C)C)C1c1cccc([N+](=O)[O-])c1 (stereo not drawn) [Nilvadipine]
rat [1]
Conditions | concentration in plasma [ng/mL]
0.25 h | 271
0.5 h | 160
1 h | 75.8
2 h | 99.2
4 h | 27.8
6 h | 22.1
8 h | 15
10 h | 1.26

concentration in plasma [ng/mL], rat [2], dosed: Nilvadipine
Conditions | 0.25 h | 0.5 h | 1 h | 2 h | 4 h | 5 min | 6 h | 8 h | 10 h
0.1000000000 mg/kg, iv, female | 16 | 8 | 4.43 | 2.48 | 0.674 | 27.3 | – | – | –
0.1000000000 mg/kg, iv, male | 11.8 | 7.16 | 3.5 | 2.19 | 0.824 | 29.2 | 0.387 | – | –
10.0000000000 mg/kg, oral, male | 34.6 | 44.3 | 14.6 | 10.7 | 3.01 | – | 4.89 | 2.84 | 12.2

O=C(NC(=O)c1c(F)cccc1F)Nc1ccc(OC(F)(F)C(F)OC(F)(F)F)c(Cl)c1 (stereo not drawn) [Novaluron]
concentration in plasma [ng/mL]
Conditions | rat [3] | rat [4] | rat [5] | rat [6] | rat [7]
0.25 h | – | – | 5.18 | 9.95 | 14
0.5 h | 125 | 202 | 25.3 | 24 | 37.7
1 h | 112 | 191 | 70.4 | 49.9 | 75
2 h | 68.3 | 120 | 135 | 63 | 165
4 h | 32.7 | 75.9 | 151 | 132 | 149
5 min | 241 | 283 | – | – | –
8 h | 31.4 | 34.7 | 148 | 89.1 | 191
10 min | 43.2 | 188 | – | – | –
12 h | 11.6 | 21.7 | 172 | 117 | 129
24 h | 8.64 | 9.78 | 44.3 | 81.5 | 59.6
48 h | – | 5.04 | 29.8 | 35 | 40.7
72 h | – | 5.1 | 14.6 | 16.2 | 22.9

rat [2], dosed: Novaluron, male
Conditions | concentration in plasma [ng/mL]
0.25 h, 2.0000000000 mg/kg, oral | 2.87
0.5 h, 0.4000000000 mg/kg, iv | 194
0.5 h, 2.0000000000 mg/kg, oral | 23.8
1 h, 0.4000000000 mg/kg, iv | 176
1 h, 2.0000000000 mg/kg, oral | 70.5
2 h, 0.4000000000 mg/kg, iv | 188
2 h, 2.0000000000 mg/kg, oral | 137
4 h, 0.4000000000 mg/kg, iv | 121
4 h, 2.0000000000 mg/kg, oral | 168
5 min, 0.4000000000 mg/kg, iv | 252
8 h, 0.4000000000 mg/kg, iv | 48.3
8 h, 2.0000000000 mg/kg, oral | 199
10 min, 0.4000000000 mg/kg, iv | 161
12 h, 0.4000000000 mg/kg, iv | 21.8
12 h, 2.0000000000 mg/kg, oral | 141
24 h, 0.4000000000 mg/kg, iv | 15.9
24 h, 2.0000000000 mg/kg, oral | 53.2
48 h, 0.4000000000 mg/kg, iv | 6.27
48 h, 2.0000000000 mg/kg, oral | 25.3
72 h, 0.4000000000 mg/kg, iv | 2.8
72 h, 2.0000000000 mg/kg, oral | 21.4

C#CC(C)(C)NC(=O)c1cc(Cl)cc(Cl)c1 [Propyzamide]
concentration in plasma [ng/mL]
Conditions | rat [8] | rat [9] | rat [10] | rat [11] | rat [12] | rat [13] | rat [14]
0.25 h | 125 | 62.6 | 217 | – | 43.1 | 228 | –
0.5 h | 118 | 83.7 | 244 | 65.8 | 104 | 302 | 46.9
1 h | 90.6 | 61.9 | 205 | 49.6 | 75.4 | 262 | 23.8
2 h | 50.7 | 29.5 | 98.2 | 19.8 | 46.3 | 158 | 9.3
4 h | 17.4 | 49.3 | 159 | 7.8 | 54 | 234 | 1.2
5 min | – | – | – | 156 | – | – | 119
8 h | 24.1 | 50.9 | 148 | – | 44.1 | 116 | 1.4
10 min | – | – | – | 131 | – | – | 122
12 h | 8.2 | 6.1 | – | 0.6 | 8.2 | – | –
24 h | – | – | 2.89 | – | 1.5 | 3.06 | –
48 h | – | – | 0.376 | – | – | 0.269 | –
72 h | – | – | 0.0426 | – | – | 0.0997 | –

rat [2], dosed: Propyzamide, male
Conditions | concentration in plasma [ng/mL]
0.25 h, 3.0000000000 mg/kg, oral | 96.6
0.25 h, 3.2120000000 mg/kg, oral | 252
0.5 h, 0.6 mg/kg, iv | 47.6
0.5 h, 3.0000000000 mg/kg, oral | 130
0.5 h, 3.2120000000 mg/kg, oral | 359
1 h, 0.6 mg/kg, iv | 15.1
1 h, 3.0000000000 mg/kg, oral | 103
1 h, 3.2120000000 mg/kg, oral | 323
2 h, 3.0000000000 mg/kg, oral | 58.4
2 h, 3.2120000000 mg/kg, oral | 153
4 h, 0.6 mg/kg, iv | 3.1
4 h, 3.0000000000 mg/kg, oral | 39.7
4 h, 3.2120000000 mg/kg, oral | 174
5 min, 0.6 mg/kg, iv | 165
8 h, 3.0000000000 mg/kg, oral | 49.7
8 h, 3.2120000000 mg/kg, oral | 83.5
10 min, 0.6 mg/kg, iv | 117
12 h, 3.0000000000 mg/kg, oral | 16.8
24 h, 3.0000000000 mg/kg, oral | 1.2
24 h, 3.2120000000 mg/kg, oral | 2.23
48 h, 3.2120000000 mg/kg, oral | 0.327
72 h, 3.2120000000 mg/kg, oral | 0.0846

COc1cc(OC)nc(Sc2cccc(Cl)c2C(=O)[O-])n1.[Na+] [Pyrithiobac sodium]
concentration in plasma [ng/mL]
Conditions | 0.25 h | 0.5 h | 1 h | 2 h | 4 h | 8 h | 24 h
rat [15] | 1380 | 1560 | 1090 | 437 | 112 | 31.9 | 0.833
rat [16] | 1400 | 1190 | 1270 | 331 | 154 | 65.6 | 1.06

rat [2], dosed: Pyrithiobac sodium, 1.037 mg/kg, oral, male
Conditions | concentration in plasma [ng/mL]
0.25 h | 1080
0.5 h | 1060
1 h | 1190
2 h | 458
4 h | 126
8 h | 37
24 h | 0.55
72 h | 0.206
